In US10544130B2, “Metallo-beta-lactamase inhibitors” (priority 2015, dated 2020):

Columns and labels:
[1] = system: Escherichia coli expressing NDM-1 (CLB30005, CLB30016); format: cell-based; details: with imipenem 1 μg/ml; 95% inhibition of bacterial growth
Outline: (§1)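 Clinical strains were grown overnight at 35 °C on blood agar, adjusted to set OD600 in saline and diluted 1:100 into 1.1× CAMHB. Inhibitor was tested with and without imipenem at 1 μg/ml. After 22–24 h at 35 °C, absorbance was read to give synergistic concentration.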

[2] = system: Klebsiella pneumoniae expressing VIM-1 (IHMA599644); format: cell-based; details: with imipenem 1 μg/ml; 95% inhibition of bacterial growth
Outline: as §1

[3] = system: Serratia marcescens expressing IMP-1 (CL5741); format: cell-based; details: with imipenem 1 μg/ml; 95% inhibition of bacterial growth
Outline: as §1

[4] = system: Pseudomonas aeruginosa PAO1 MB9798 (efflux+, IMP-1); details: ratio MITC95 PA 9798/MITC95 PA 9799; imipenem at 2 μg/mL
Outline: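 Isogenic PAO1 pair (efflux+ MB9798, efflux− MB9799, both IMP-1) tested by microbroth MIC with fixed imipenem and/or ceftazidime, usually at CLSI breakpoint, plus fixed class A/C inhibitor against AmpC. MBL inhibitor titrated; concentration restoring susceptibility recorded and fold difference between strains taken as efflux extent.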

SMILES | Escherichia coli (NDM-1) MITC95 [1] [µM] | Klebsiella pneumoniae (VIM-1) MITC95 [2] [µM] | Serratia marcescens (IMP-1) MITC95 [3] [µM] | Efflux ratio [4]
NCCNS(=O)(=O)c1ccc(-c2cccc(C(=O)NC[C@H](O)CN)c2)c(-c2nn[nH]n2)c1S(N)(=O)=O [Example 346, (R)—N-(3-amino-2-hydroxypropyl)-4′-(N-(2-aminoethyl)sulfamoyl)-3′-sulfamoyl-2′-(2H-tetrazol-5-yl)-[1,1′-biphenyl]-3-carboxamide] | 1.563 | 1.563 | 1.563 | 2.00
NCCNS(=O)(=O)c1ccc(-c2cccc3[nH]c([C@@H](N)CN)nc23)c(-c2nn[nH]n2)c1S(N)(=O)=O [Example 336, (S)—N1-(2-aminoethyl)-4-(2-(1,2-diaminoethyl)-1H-benzo[d]imidazol-4-yl)-3-(2H-tetrazol-5-yl)benzene-1,2-disulfonamide] | 1.563 | 3.125 | 3.125 | 2.00
Cn1nc2cccc(-c3ccc(S(=O)(=O)N[C@@H]4CCNC4)c(S(N)(=O)=O)c3-c3nn[nH]n3)c2n1 [Example 281, (R)-4-(2-methyl-2H-benzo[d][1,2,3]triazol-4-yl)-N1-(pyrrolidin-3-yl)-3-(2H-tetrazol-5-yl)benzene-1,2-disulfonamide] | 1.563 | 3.125 | 1.563 | 2.00
Nc1cc(-c2ccc(S(=O)(=O)N[C@@H]3CCNC3)c(S(N)(=O)=O)c2-c2nn[nH]n2)ccn1 [Example 288, (R)-4-(2-aminopyridin-4-yl)-N1-(pyrrolidin-3-yl)-3-(2H-tetrazol-5-yl)benzene-1,2-disulfonamide] | 0.7813 | 1.563 | 1.563 | 2.00
NC[C@H](CO)NS(=O)(=O)c1ccc(-c2ccnc(N)c2)c(-c2nn[nH]n2)c1S(N)(=O)=O [Example 362, (R)—N1-(1-amino-3-hydroxypropan-2-yl)-4-(2-aminopyridin-4-yl)-3-(2H-tetrazol-5-yl)benzene-1,2-disulfonamide] | 1.563 | 3.125 | 1.563 | 2.00
NCCNS(=O)(=O)c1ccc(-c2cccc(SC[C@H](O)CN)c2)c(-c2nn[nH]n2)c1S(N)(=O)=O [Example 356, (R)-3′-((3-amino-2-hydroxypropyl)thio)-N4-(2-aminoethyl)-2-(2H-tetrazol-5-yl)-[1,1′-biphenyl]-3,4-disulfonamide] | 0.7813 | 0.7813 | 0.7813 | 2.00
NCCNS(=O)(=O)c1ccc(-c2cccc3[nH]c([C@H](N)CN)nc23)c(-c2nn[nH]n2)c1S(N)(=O)=O [Example 335, (R)—N1-(2-aminoethyl)-4-(2-(1,2-diaminoethyl)-1H-benzo[d]imidazole-4-yl)-3-(2H-tetrazol-5-yl)benzene-1,2-disulfonamide] | 1.563 | 3.125 | 3.125 | 2.00
NCCNS(=O)(=O)c1ccc(-c2cccc3[nH]c(CN)nc23)c(-c2nn[nH]n2)c1S(N)(=O)=O [Example 343] | 0.7813 | 0.7813 | 0.7813 | 1.00
NCc1nc2c(-c3ccc(S(=O)(=O)N[C@@H](CN)CO)c(S(N)(=O)=O)c3-c3nn[nH]n3)cccc2[nH]1 [Example 379, (S)—N^1-(1-amino-3-hydroxypropan-2-yl)-4-(2-(aminomethyl)-1H-benzo[d]imidazol-4-yl)-3-(2H-tetrazol-5-yl)benzene-1,2-disulfonamide] | 1.563 | 1.563 | 1.563 | 2.00
CN([C@H]1CCNC1)S(=O)(=O)c1ccc(-c2cccc3[nH]c(N)nc23)c(-c2nn[nH]n2)c1S(N)(=O)=O [Example 244, (S)-4-(2-amino-1H-benzo[d]imidazol-7-yl)-N1-methyl-N1-(pyrrolidin-3-yl)-3-(1H-tetrazol-5-yl)benzene-1,2-disulfonamide] | 0.7813 | 1.563 | 1.563 | 2.00
NCCNC(=O)c1cc(Cl)cc(-c2ccc(S(=O)(=O)N[C@@H]3CCNC3)c(S(N)(=O)=O)c2-c2nn[nH]n2)c1N [Example 450, (R)-2-Amino-N-(2-aminoethyl)-5-chloro-4′-(N-(pyrrolidin-3-yl)sulfamoyl)-3′-sulfamoyl-2′-(2H-tetrazol-5-yl)-[1,1′-biphenyl]-3-carboxamide] | 1.563 | 1.563 | 1.563 | –
NCCNC(=O)c1cc(Cl)cc(-c2ccc(S(=O)(=O)NCCN)c(S(N)(=O)=O)c2-c2nn[nH]n2)c1N [Example 447, 2-Amino-N-(2-aminoethyl)-4′-(N-(2-aminoethyl)sulfamoyl)-5-chloro-3′-sulfamoyl-2′-(2H-tetrazol-5-yl)-[1,1′-biphenyl]-3-carboxamide] | 0.7813 | 1.563 | 0.7813 | –
NCCNCc1sc(N)nc1-c1cccc(-c2ccc(S(=O)(=O)N[C@@H]3CCNC3)c(S(N)(=O)=O)c2-c2nnn[nH]2)c1 [Example 433, (R)-3′-(2-amino-5-(((2-aminoethyl)amino)methyl)thiazol-4-yl)-N^4-(pyrrolidin-3-yl)-2-(1H-tetrazol-5-yl)-[1,1′-biphenyl]-3,4-disulfonamide] | 0.7813 | 1.563 | 1.563 | –
NCC(CN)NS(=O)(=O)c1ccc(-c2cccc(-c3c[nH]c(N)n3)c2)c(-c2nn[nH]n2)c1S(N)(=O)=O [Example 435, 3′-(2-amino-1H-imidazol-4-yl)-N4-(1,3-diaminopropan-2-yl)-2-(2H-tetrazol-5-yl)-[1,1′-biphenyl]-3,4-disulfonamide] | 1.563 | 3.125 | 3.125 | –
NCC(=O)NC1C=C(c2ccc(S(=O)(=O)N[C@@H]3CCNC3)c(S(N)(=O)=O)c2-c2nn[nH]n2)CCC1 (stereo partly drawn) [Example 269, 2-Amino-N-(4′-(N—((R)-pyrrolidin-3-yl)sulfamoyl)-3′-sulfamoyl-2′-(2H-tetrazol-5-yl)-3,4,5,6-tetrahydro-[1,1′-biphenyl]-3-yl)acetamide] | 1.563 | 3.125 | 1.563 | –
Nc1nc2c(-c3ccc(S(=O)(=O)N[C@@H]4CNC[C@H]4N)c(S(N)(=O)=O)c3-c3nn[nH]n3)cccc2[nH]1 [Example 424, 4-(2-amino-1H-benzo[d]imidazol-4-yl)-N^1-((3R,4R)-4-aminopyrrolidin-3-yl)-3-(2H-tetrazol-5-yl)benzene-1,2-disulfonamide] | 0.7813 | 1.563 | 1.563 | –
NCC(F)(F)c1nc2c(-c3ccc(S(=O)(=O)N[C@H]4CCNC4)c(S(N)(=O)=O)c3-c3nn[nH]n3)cccc2[nH]1 [Example 446, (S)-4-(2-(2-amino-1,1-difluoroethyl)-1H-benzo[d]imidazol-4-yl)-N1-(pyrrolidin-3-yl)-3-(2H-tetrazol-5-yl)benzene-1,2-disulfonamide] | 1.563 | 3.125 | 3.125 | –
NCCNc1cc(-c2ccc(S(=O)(=O)NCCN)c(S(N)(=O)=O)c2-c2nn[nH]n2)ccn1 [Example 456, N1-(2-Aminoethyl)-4-(2-((2-aminoethyl)amino)pyridin-4-yl)-3-(2H-tetrazol-5-yl)benzene-1,2-disulfonamide] | 0.7813 | 1.563 | 0.7813 | –
C[C@H](N)Cc1nc2c(-c3ccc(S(=O)(=O)N[C@@H]4CCNC4)c(S(N)(=O)=O)c3-c3nn[nH]n3)cccc2[nH]1 [Example 441, 4-(2-((S)-2-Aminopropyl)-1H-benzo[d]imidazol-4-yl)-N1-((R)-pyrrolidin-3-yl)-3-(2H-tetrazol-5-yl)benzene-1,2-disulfonamide] | 1.563 | 1.563 | 1.563 | –
